Columns and labels:
[1] = tested on: Xathomonas ssp; experiment: Preventive action on tomatoes against Xathomonas ssp (field trial); assay type: in vivo; conditions: under the trial conditions (tomato field trial); assumed, not tested alone
Experimental: The active compounds used were applied as commercially available formulations.
(§1) The visually determined percentages of infected leaf areas were converted into efficacies in % of the untreated control:
The efficacy (E) is calculated as follows using Abbot's formula: […]
α corresponds to the fungal infection of the treated plants in % and β corresponds to the fungal infection of the untreated (control) plants in %
(§2) An efficacy of 0 means that the infection level of the treated plants corresponds to that of the untreated control plants; an efficacy of 100 means that the treated plants were not infected.
The trial was conducted under field conditions. Tomato plants of variety Carmen at a height of app. 10 cm were planted and grown under standard conditions with adequate supply of water and nutrients. After 18 days a first application of active compounds was made, which was repeated five times every 5 to 8 days. No other compounds were applied for pathogen control. Infection with pathogens occurred. Each treatment consisted of four replicants in a randomized block design. The disease incidences were evaluated 46 days after the first application (Xathomonas ssp.).

[2] = tested on: Erwinia carotovora; experiment: Preventive action on potatoes against Erwinia carotovora (field trial); assay type: in vivo; conditions: under the trial conditions (potato field trial); assumed, not tested alone
Description: as §1, §2

How did the “efficacy against Xathomonas” value [1] turn out when `[Cl-].[Cu+2].[Cu+2].[OH-].[OH-].[OH-]` [copper, copper oxychloride] was run?
Its value is “very close to zero”.

What about the “efficacy against Erwinia carotovora” value [2] of the same compound?
The value was “very close to zero”.

Source: US20090143416A1, “Method of Inducing Tolerance of Plants Against Bacterioses” (priority 2006, published 2009)
